The results in this text go back to ChEMBL document CHEMBL2406942, “Design, synthesis and neuroprotective evaluation of novel tacrine-benzothiazole hybrids as multi-targeted compounds against Alzheimer's disease” (Bioorg Med Chem, 2013).

Test [1] addresses Amyloid-beta precursor protein (Homo sapiens) (UniProt P05067). Put plainly: Neuroprotective activity against amyloid beta (1 to 42)-induced toxicity in Alzheimer's disease patient platelet-SH-SY5Y cell cybrid at 2.5 uM preincubated for 3 hrs by MTT assay. The class given is functional, cell-based.
A further test has as its target Acetylcholinesterase (Electrophorus electricus, UniProt O42275).
Test [2] concerns the target Amyloid-beta precursor protein (Homo sapiens) (UniProt P05067). The experiment in a line: Neuroprotective activity against amyloid beta (1 to 42)-induced toxicity in mild cognitive impairment patient platelet-SH-SY5Y cell cybrid at 2.5 uM preincubated for 3 hrs by MTT assay. The format is functional, cell-based. (In general: Formazan colour is commonly taken as a measure of viable cells.)

The subject of test [3] is Radical scavenging activity. Put plainly: Antioxidant activity assessed as DPPH free radical scavenging activity at 1.22 mM after 30 mins by spectrophotometric analysis relative to control. The class given is functional. (DPPH is a stable violet radical that fades when it is reduced.)
Test [4] has as its system Radical scavenging activity. The experiment in a line: Antioxidant activity assessed as DPPH free radical scavenging activity at 1 mM after 30 mins by spectrophotometric analysis relative to control. The class given is functional.
Test [5] has as its target Amyloid-beta precursor protein (Homo sapiens) (UniProt P05067). The experiment in a line: Neuroprotective activity against amyloid beta (1 to 42)-induced toxicity in human SH-SY5Y cells at 2.5 uM preincubated for 3 hrs by MTT assay. The class given is functional, cell-based.
The target is the same in test [6]. Put plainly: Neuroprotective activity against amyloid beta (1 to 42)-induced toxicity in normal cognition human platelet-SH-SY5Y cell cybrid at 2.5 uM preincubated for 3 hrs by MTT assay. The format is functional, cell-based.
Test [7] deals with Radical scavenging activity. Put plainly: Antioxidant activity assessed as DPPH free radical scavenging activity at 1.32 mM after 30 mins by spectrophotometric analysis relative to control. The format is functional.
Test [8] concerns Radical scavenging activity.
Description: Antioxidant activity assessed as DPPH free radical scavenging activity after 30 mins by spectrophotometric analysis

Structures are written as SMILES. Active and inactive are the calls of the source. No cut-off for these calls is given here.

Sequence of Acetylcholinesterase (O42275 whole entry): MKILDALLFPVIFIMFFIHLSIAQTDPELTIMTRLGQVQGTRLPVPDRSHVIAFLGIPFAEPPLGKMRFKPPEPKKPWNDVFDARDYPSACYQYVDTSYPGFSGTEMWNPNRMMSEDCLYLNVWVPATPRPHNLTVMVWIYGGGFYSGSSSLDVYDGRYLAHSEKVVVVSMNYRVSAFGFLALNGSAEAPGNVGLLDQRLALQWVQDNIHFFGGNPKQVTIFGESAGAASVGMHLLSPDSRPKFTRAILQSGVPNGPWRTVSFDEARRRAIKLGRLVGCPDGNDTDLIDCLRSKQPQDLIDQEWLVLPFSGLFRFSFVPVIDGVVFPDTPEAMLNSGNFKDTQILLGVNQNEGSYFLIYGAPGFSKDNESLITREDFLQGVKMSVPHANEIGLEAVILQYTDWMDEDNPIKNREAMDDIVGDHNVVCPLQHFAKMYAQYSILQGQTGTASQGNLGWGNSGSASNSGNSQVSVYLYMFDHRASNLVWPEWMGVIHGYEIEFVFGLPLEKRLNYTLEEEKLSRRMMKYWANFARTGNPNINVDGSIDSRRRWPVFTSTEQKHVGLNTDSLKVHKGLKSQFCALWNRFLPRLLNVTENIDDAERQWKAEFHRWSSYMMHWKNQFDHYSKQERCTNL
Sequence of Amyloid-beta precursor protein (Homo sapiens) (P05067 whole entry): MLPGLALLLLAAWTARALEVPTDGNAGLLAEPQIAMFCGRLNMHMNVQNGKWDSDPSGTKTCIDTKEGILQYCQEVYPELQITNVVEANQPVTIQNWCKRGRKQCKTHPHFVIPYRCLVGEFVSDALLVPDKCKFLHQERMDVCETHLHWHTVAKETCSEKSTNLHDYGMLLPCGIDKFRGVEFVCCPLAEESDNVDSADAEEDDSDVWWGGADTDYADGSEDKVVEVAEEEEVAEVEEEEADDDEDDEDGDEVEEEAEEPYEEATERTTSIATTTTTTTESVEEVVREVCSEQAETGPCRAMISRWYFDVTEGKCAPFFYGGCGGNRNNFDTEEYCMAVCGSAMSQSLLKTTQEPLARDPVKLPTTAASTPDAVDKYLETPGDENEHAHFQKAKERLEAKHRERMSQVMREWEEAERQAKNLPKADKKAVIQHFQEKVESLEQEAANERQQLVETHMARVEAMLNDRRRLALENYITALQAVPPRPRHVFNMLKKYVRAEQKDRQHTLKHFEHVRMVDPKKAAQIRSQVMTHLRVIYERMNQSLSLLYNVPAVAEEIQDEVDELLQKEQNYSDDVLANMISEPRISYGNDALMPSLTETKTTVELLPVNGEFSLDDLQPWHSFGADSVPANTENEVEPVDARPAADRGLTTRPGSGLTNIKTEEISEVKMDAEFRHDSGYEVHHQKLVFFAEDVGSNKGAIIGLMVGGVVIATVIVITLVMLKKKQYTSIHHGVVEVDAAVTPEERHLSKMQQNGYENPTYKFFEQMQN
Description for Acetylcholinesterase: Inhibition of electric eel AChE using acetylcholine iodide as substrate preincubated for 15 mins prior to substrate addition by Ellman's method

On to `O=C(CCCCCNc1c2c(nc3ccccc13)CCCC2)NCCCc1nc2ccccc2s1`, for which the result in [1], in [2] and in test [5] was Active. Besides, inhibition on Acetylcholinesterase was half-maximal at 0.96 µM (IC50). Moreover, the Activity in test [3] and in [4] was 25% throughout.

In the case of `O=C(CCCCCNc1c2c(nc3ccccc13)CCCC2)Nc1ccc(-c2nc3ccccc3s2)cc1`, the IC50 against Acetylcholinesterase stood at 0.34 µM. For the same molecule, in test [6], the outcome was Active. Also, the Activity in test [7] came to 32%; in test [4] it was 25%.

In the case of `O=C(CCCCCNc1c2c(nc3ccccc13)CCCC2)Nc1ccc(Cc2nc3ccccc3s2)cc1`, the half-inhibitory concentration (IC50) on Acetylcholinesterase worked out at 0.57 µM. The EC50 in test [8] is > 1000 µM. The Activity in test [4] was found to be 25%.

`O=C(CCCCCNc1c2c(nc3ccccc13)CCCC2)NCc1ccc(-c2nc3ccccc3s2)cc1` returned an IC50 against Acetylcholinesterase of 1.84 µM. In addition, the EC50 in test [8] was > 1000 µM. Further, the Activity in test [4] is 25%.

In the case of `O=C(CCCCCNc1c2c(nc3ccccc13)CCCC2)NCCCCCc1nc2ccccc2s1`, the result in [1], in test [2] and in [5] was Active. Further, the IC50 against Acetylcholinesterase is 0.76 µM. Also, the EC50 in test [8] was > 1000 µM. In addition, the Activity in test [4] turned out to be 25%.

The IC50 is the point on the concentration scale where inhibition reaches its midpoint. A lower IC50 goes with greater potency in that assay. The EC50 is the concentration needed to bring the measured effect to its halfway point.
